# Laboratory results taken from US5380715A, “Ap4 A as a hypotensive agent” (Fujirebio Inc., priority 1992, dated 1995).
# “Also recorded” adds a separate entry of the source. Where two headings read alike, the source gives them in different places.
# How the values were obtained:
# isolated rat heart = test: Protective effect on deoxygenation-induced cardiac damage (Langendorff heart); design: species or system male SD rats; settings: 1×10^-4 M, 33 min global ischemia; words
# Experimental: The protective effect of Ap4A against ischemia by use of a Langendorff heart (Aronson, CE. and Serlick, ER. Toxicol. Appl. Pharmac. 38, 479-488 (1976)) was tested.
# Deoxygenation-induced cardiac damage according to the method of Aronson & Serlich (Toxical. appl. Parmac. 38, 479-488, 1976) with slight modifications. Male SD rats (Charles River Japan Inc.) weighing 320 to 390 g were anesthetized with ether, and heart quickly isolated. The isolated rat heart was mounted and perfused with Krebs-Henselite solution (118 mM NaCl, 4.7 mM KCl, 2.5 mM CaCl2, 1.2 mM MgSO4, 1.2 mM KH2 PO4, 25 mM NaHCO3 and 10 mM glucose) bubbled with 95% O2 +5% CO2 at a flow rates of 14 ml/min. at 37° C. The myocardial function was monitored by the left ventricular pressure (L.V.P.), differential values of L.V.P. (dp/dt), heart rate (H.R.) and perfused pressure (P.P.) through a branch of an aortic canula mounted on the heart. After equilibrate for 40 min., global ischemia was produced by stopping the perfusing solution and the heart was incubated for 33 min. in 50 ml Krebs-Henselite bubble with N2 gas (control). 33 min. later, the buffer solution was removed. The perfusion was re-started, and the myocardial function was measured. The heart was incubated in Krebs-Henselite solution containing Ap4A 1×10^-4 M during global ischemia.
# [1] = tested on: rabbit platelet aggregation; test: Inhibitory effect on rabbit platelet aggregation; type: cell-based; settings: for IC50: Oryctolagus cuniculus, Platelet
# Experimental: (§1) Fresh blood samples were collected from male Japanese white rabbits weighing 2-3 kg. Blood was anticoagulated with citric acid (1 ml 3.8% citric acid solution +9 ml blood). These samples were centrifuged at room temperature for 20 min at 200×g to obtained platelet-rich plasma (PRP). Furthermore, the supernatant liquid was centrifuged for 10 min at 1500×g to obtained platelet-poor plasma (PPP). Aggregation of platelests was measured photometrically in a Nihon Kohden hema tracer equipped with a mechanical stirring device and with a chart record. At this time, the chart recorder was calibrated as follows: the light transmission obtained with PPP was set as 100% transmission and the optical density of PRP was taken as 0% transmission. Maximal aggregation, i.e. the maximal change in optical density of the primary wave calculated in percent light transmission. From the study, it was determined that ADP, Ap3A, PAF(platelet activating factor) and collagen induced maximal aggregations at a concentration of 1×10^-5 M, 1×10^-4 M, 1.9×10^-7 M and 5 μg/kg, respectively. In the following studies, these aggregating agents were used at maximal dose. The effect of Ap4A on platelet aggregation by ADP and Ap3A were tested. In this time, Ap4A was pretreated for 1 or 10 min before the addition of aggregating agents. Also, after the platelet aggregation was induced by addition of ADP, PAF or collagen to PRP, the platelet aggregate dispersing effect of Ap4A was tested.
# [2] = tested on: rabbit platelet aggregation; test: Platelet aggregate dispersing effect; type: cell-based; settings: ADP- and PAF-induced; result in words (FIG. 5)
# Experimental: as §1, with “Also, after the platelet aggregation was induced by addition of ADP, PAF or collagen to PRP, the platelet aggregate dispersing effect of Ap4A was tested.” left out
# rabbit erythrocytes = test: Inhibitory effect on rabbit erythrocyte crenation induced by A23187; type: cell-based; settings: for Crenation: x ± SE; for inhibition of A23187-induced erythrocyte crenation: result in words
# Experimental: Fresh blood was collected from Japanese white rabbits weighing 2-3 kg. Blood samples were anticoagulated with citric acid (1 ml 3.8% Citric acid solution+10 ml blood). These samples were centrifuged at room temperature for 15 min at 1100 rpm. After centrifugation of the defibrinated blood, the upper cell layers were discarded. The erythrocytes (pellet) were washed 4 times in a medium containing; 56.6 mM Tris-HCl, pH 7.6, 100 mM NaCl, 4.6 mM KCl,0.64 mM MgCl2. The erythrocytes were preincubated with saline solution or Ap4 A at 37° C for 10min and then A23187 1×10^-6 M and CaCl2 5×10^-7 M were added to the Mixture. After incubation at 37° C. for 20 min, the reaction mixture was centrifugated at 1000 rpm for 10 min. The precipitation was fixed by addition of 0.1M cacodylate buffer containing 0.22M sucrose. The number of transforming erythrocytes was counted using a microscope.
smiles,measurement,setting,value
"Nc1ncnc2c1ncn2[C@@H]1O[C@H](COP(=O)(O)OP(=O)(O)OP(=O)(O)OP(=O)(O)OC[C@H]2O[C@@H](n3cnc4c(N)ncnc43)[C@H](O)[C@@H]2O)[C@@H](O)[C@H]1O [Ap4A, diadenosine 5',5'""-p^1,p^4 -tetraphosphate]","prevention of cardiac damage (loss of L.V.P., dp/dt and H.R.)",isolated rat heart,"significantly prevented cardiac damage (loss of L.V.P., dp/dt and H.R.) induced by deoxygenation; also recorded: the above-mentioned impairment in the untreated Langendorff heart was found to be prevented"
same,time to submaximal/maximum anti-platelet aggregating effect,[1],≤ 1 min
same,inhibition of platelet aggregation,"[1]; ADP- and Ap3A-induced, result in words","Both ADP- and Ap3A-induced platelet aggregations were inhibited; also recorded: inhibits ADP-induced and Ap3A (diadenosine 5', 5'""-p^1,p^4 -triphosphate)-induced platelet-aggregation reactions"
same,IC50,"[1]; read-out: Ap4A IC50, ADP (1 × 10^-5 M) induced, 1 min. pretreatment",205 µM
same,IC50,"[1]; read-out: Ap4A IC50, ADP (1 × 10^-5 M) induced, 10 min. pretreatment",42 µM
same,IC50,"[1]; read-out: Ap4A IC50, Ap3A (1 × 10^-4 M) induced, 1 min. pretreatment",9.06 µM
same,IC50,"[1]; read-out: Ap4A IC50, Ap3A (1 × 10^-4 M) induced, 10 min. pretreatment",49.9 µM
same,time to substantially maximum inhibitory effect,[1]; result in words,substantially maximum effect is obtained within one minute
same,platelet aggregate dispersing effect,[2],Both ADP- and PAF-induced platelet aggregations were dispersed; also recorded: dispersing aggregated lumps formed by PAF (platelet activating factor) and ADP
same,Crenation,"rabbit erythrocytes; 10^-3 M, P < 0.01 vs control",19.2 ± 9.1%
same,Crenation,"rabbit erythrocytes; 10^-4 M, P < 0.05 vs control",37.0 ± 6.4%
same,Crenation,rabbit erythrocytes; 10^-5 M,49.1 ± 3.9%
same,inhibition at 1000 µM,"rabbit erythrocytes; Oryctolagus cuniculus, Erythrocyte, 10^-3 M",66.1%
same,inhibition at 100 µM,"rabbit erythrocytes; Oryctolagus cuniculus, Erythrocyte, 10^-4 M",34.6%
same,inhibition at 10 µM,"rabbit erythrocytes; Oryctolagus cuniculus, Erythrocyte, 10^-5 M",13.3%
same,IC50,"rabbit erythrocytes; Oryctolagus cuniculus, Erythrocyte, A23187-induced crenation",300 µM
same,inhibition of A23187-induced erythrocyte crenation,rabbit erythrocytes,significant inhibitory effect
same,inhibition of A23187-induced erythrocyte crenation,rabbit erythrocytes; listed as Ap4 A,A23187-induced rabbit erythrocyte crenation was inhibited
